Laboratory results: ChEMBL document CHEMBL5465560, “Selectivity Literature for EUbOPEN Chemogenomic Library” (2024)

Experiments:
[1] = molecular target: T1, MAP/microtubule affinity-regulating kinase 4 (Homo sapiens) (UniProt Q96L34); test: Selectivity interaction (Kinase panel (KiNativ target engagement assay in Jurkat cells)) EUB0001635a MARK4; assay type: cell-based; settings: Selectivity number of off-targets 0.0, Selectivity number of targets 233.0, Source Knowledge https://www.sciencedirect.com/science/article/pii/S2451945619300674?via%3Dihub, at 1 µM
T1 sequence (whole entry): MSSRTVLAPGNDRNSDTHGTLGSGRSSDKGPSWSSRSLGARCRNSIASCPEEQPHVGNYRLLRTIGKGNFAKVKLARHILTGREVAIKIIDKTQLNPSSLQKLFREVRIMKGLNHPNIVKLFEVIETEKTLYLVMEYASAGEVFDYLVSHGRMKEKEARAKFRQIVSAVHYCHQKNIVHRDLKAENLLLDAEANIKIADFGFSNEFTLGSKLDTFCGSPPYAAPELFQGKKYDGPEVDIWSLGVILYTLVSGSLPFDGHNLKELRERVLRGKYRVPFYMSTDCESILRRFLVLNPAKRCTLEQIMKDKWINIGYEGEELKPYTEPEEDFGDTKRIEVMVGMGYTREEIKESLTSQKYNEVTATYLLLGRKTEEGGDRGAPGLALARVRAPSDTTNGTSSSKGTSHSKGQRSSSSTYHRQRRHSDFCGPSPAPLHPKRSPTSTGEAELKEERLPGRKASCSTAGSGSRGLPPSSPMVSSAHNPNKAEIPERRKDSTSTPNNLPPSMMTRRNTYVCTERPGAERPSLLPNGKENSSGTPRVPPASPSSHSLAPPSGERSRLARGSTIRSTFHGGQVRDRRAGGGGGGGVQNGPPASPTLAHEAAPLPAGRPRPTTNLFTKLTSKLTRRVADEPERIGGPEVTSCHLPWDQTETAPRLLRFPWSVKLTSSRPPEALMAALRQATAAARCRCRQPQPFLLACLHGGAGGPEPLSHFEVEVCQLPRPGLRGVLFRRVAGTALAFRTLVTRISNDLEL

[2] = molecular target: Serine/threonine-protein kinase N1 (Homo sapiens, UniProt Q16512); test: Selectivity interaction (Kinase panel (KiNativ target engagement assay in Jurkat cells)) EUB0001635a PKN1; assay type: cell-based; settings: Selectivity number of off-targets 0.0, Selectivity number of targets 233.0, Source Knowledge https://www.sciencedirect.com/science/article/pii/S2451945619300674?via%3Dihub, at 1 µM
Sequence of Serine/threonine-protein kinase N1 (Q16512 2-942 limits assumed): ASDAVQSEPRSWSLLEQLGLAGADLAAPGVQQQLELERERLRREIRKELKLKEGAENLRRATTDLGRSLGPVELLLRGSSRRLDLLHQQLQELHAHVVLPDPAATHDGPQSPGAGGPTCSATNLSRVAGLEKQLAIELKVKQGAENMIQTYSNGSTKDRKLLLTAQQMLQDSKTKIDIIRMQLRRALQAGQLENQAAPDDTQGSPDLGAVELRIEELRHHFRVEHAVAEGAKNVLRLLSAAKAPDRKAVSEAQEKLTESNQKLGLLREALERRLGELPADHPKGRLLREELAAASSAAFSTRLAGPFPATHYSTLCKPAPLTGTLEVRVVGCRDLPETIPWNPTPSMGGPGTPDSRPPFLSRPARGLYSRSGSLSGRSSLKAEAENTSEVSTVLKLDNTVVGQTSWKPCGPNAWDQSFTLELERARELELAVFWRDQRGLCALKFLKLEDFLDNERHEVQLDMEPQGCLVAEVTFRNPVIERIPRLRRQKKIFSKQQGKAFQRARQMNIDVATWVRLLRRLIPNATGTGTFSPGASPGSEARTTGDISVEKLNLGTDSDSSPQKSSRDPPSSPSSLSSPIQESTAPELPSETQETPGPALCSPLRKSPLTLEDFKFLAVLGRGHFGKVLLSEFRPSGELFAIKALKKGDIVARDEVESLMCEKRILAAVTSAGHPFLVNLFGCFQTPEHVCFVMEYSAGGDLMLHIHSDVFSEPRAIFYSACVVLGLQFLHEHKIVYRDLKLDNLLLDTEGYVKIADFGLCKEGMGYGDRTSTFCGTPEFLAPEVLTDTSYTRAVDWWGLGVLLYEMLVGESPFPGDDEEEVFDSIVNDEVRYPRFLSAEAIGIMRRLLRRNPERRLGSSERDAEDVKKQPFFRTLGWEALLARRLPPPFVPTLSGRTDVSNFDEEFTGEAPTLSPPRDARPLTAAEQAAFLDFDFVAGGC

[3] = molecular target: T2, Cyclin-dependent kinase 11A (Homo sapiens) (UniProt Q9UQ88); settings: at 10 µM
T2 sequence (whole entry): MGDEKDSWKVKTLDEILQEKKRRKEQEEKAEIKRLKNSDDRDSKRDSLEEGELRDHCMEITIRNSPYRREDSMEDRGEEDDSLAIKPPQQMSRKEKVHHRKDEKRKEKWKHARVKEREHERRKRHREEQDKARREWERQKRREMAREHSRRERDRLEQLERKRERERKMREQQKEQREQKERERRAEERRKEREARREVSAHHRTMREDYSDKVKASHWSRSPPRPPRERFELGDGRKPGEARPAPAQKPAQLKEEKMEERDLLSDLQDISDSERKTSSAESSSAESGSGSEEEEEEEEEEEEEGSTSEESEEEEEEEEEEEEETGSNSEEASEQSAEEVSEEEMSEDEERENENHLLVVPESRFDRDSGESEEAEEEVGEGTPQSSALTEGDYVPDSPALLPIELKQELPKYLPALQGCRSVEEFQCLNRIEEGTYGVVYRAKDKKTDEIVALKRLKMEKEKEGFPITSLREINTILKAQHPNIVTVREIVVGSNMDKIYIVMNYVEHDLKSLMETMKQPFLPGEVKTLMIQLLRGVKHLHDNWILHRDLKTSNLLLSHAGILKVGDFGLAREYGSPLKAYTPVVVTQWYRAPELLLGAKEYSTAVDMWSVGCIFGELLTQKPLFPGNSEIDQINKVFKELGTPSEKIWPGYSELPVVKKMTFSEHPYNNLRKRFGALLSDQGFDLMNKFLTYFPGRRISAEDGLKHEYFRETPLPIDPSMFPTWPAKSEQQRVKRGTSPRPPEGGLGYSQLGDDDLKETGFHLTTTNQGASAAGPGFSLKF

[4] = molecular target: T3, Serine/threonine-protein kinase TAO1 (Homo sapiens) (UniProt Q7L7X3); test: Selectivity interaction (KinomeScan (DiscoverX)) EUB0001619a TAOK1; settings: at 1 µM
T3 sequence (whole entry): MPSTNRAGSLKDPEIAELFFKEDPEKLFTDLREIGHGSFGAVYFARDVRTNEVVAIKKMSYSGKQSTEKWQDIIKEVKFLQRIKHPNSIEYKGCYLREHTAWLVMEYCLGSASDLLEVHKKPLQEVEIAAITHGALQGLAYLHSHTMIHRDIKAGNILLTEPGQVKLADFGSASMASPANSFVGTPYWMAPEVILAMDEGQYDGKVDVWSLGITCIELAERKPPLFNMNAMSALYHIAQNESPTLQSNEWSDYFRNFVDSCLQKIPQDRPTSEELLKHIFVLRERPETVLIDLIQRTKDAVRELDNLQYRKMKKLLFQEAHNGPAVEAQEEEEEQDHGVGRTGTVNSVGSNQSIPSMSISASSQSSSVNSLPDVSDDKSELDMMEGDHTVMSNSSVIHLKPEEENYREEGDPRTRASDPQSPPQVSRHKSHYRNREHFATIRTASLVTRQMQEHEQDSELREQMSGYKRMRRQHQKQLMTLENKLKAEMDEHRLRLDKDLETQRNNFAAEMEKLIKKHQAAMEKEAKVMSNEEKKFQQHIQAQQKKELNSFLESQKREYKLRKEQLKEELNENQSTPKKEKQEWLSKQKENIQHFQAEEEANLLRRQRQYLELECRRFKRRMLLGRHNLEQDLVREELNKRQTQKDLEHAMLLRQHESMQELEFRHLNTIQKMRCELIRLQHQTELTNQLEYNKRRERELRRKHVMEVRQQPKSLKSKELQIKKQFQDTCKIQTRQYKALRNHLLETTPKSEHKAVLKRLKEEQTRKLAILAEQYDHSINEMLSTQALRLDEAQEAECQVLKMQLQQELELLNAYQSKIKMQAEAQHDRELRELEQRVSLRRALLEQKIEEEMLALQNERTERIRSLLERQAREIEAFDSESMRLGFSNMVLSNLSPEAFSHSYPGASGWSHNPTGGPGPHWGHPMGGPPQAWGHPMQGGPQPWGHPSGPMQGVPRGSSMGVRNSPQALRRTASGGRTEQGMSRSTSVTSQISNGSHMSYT

[5] = molecular target: Bromodomain-containing protein 4 (Homo sapiens, UniProt O60885); test: Selectivity interaction (Kinase panel (DSF assay)) EUB0001558a BRD4
[6] = molecular target: Phosphatidylinositol 4-kinase beta (Homo sapiens, UniProt Q9UBF8); test: Selectivity interaction (ActivX KiNativ screen (kinase selectivity in THP-1 cell lysates)) EUB0000639a PI4KB; assay type: subcellular; settings: lysate
Sequence of Phosphatidylinositol 4-kinase beta (Q9UBF8 2-816 limits assumed): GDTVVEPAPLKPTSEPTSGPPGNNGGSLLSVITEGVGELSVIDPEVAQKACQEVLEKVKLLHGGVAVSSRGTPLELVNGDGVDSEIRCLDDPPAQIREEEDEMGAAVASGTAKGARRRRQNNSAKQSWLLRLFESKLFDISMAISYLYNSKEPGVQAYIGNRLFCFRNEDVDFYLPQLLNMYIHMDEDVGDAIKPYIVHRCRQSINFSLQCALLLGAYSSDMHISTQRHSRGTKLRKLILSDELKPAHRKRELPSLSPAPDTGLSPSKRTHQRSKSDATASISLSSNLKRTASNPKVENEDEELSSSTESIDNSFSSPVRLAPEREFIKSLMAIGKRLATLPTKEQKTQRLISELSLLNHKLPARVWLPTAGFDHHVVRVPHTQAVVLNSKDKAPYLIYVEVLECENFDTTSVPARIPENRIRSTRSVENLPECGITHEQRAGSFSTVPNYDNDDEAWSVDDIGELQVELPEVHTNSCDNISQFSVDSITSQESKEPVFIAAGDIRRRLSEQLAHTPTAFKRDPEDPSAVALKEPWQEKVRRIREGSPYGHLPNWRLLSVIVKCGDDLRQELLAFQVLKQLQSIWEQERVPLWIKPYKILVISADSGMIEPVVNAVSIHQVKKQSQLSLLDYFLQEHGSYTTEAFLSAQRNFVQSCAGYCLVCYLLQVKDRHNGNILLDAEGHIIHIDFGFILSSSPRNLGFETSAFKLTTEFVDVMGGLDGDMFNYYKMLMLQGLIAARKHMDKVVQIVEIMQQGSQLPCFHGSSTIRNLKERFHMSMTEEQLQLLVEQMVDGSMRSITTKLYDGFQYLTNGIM

[7] = molecular target: Serine/threonine-protein kinase MRCK beta (Homo sapiens) (UniProt Q9Y5S2); test: Selectivity interaction (KinomeScan (DiscoverX)) EUB0000092b CDC42BPB; settings: at 10 µM
Sequence of Serine/threonine-protein kinase MRCK beta (Homo sapiens) (Q9Y5S2 whole entry): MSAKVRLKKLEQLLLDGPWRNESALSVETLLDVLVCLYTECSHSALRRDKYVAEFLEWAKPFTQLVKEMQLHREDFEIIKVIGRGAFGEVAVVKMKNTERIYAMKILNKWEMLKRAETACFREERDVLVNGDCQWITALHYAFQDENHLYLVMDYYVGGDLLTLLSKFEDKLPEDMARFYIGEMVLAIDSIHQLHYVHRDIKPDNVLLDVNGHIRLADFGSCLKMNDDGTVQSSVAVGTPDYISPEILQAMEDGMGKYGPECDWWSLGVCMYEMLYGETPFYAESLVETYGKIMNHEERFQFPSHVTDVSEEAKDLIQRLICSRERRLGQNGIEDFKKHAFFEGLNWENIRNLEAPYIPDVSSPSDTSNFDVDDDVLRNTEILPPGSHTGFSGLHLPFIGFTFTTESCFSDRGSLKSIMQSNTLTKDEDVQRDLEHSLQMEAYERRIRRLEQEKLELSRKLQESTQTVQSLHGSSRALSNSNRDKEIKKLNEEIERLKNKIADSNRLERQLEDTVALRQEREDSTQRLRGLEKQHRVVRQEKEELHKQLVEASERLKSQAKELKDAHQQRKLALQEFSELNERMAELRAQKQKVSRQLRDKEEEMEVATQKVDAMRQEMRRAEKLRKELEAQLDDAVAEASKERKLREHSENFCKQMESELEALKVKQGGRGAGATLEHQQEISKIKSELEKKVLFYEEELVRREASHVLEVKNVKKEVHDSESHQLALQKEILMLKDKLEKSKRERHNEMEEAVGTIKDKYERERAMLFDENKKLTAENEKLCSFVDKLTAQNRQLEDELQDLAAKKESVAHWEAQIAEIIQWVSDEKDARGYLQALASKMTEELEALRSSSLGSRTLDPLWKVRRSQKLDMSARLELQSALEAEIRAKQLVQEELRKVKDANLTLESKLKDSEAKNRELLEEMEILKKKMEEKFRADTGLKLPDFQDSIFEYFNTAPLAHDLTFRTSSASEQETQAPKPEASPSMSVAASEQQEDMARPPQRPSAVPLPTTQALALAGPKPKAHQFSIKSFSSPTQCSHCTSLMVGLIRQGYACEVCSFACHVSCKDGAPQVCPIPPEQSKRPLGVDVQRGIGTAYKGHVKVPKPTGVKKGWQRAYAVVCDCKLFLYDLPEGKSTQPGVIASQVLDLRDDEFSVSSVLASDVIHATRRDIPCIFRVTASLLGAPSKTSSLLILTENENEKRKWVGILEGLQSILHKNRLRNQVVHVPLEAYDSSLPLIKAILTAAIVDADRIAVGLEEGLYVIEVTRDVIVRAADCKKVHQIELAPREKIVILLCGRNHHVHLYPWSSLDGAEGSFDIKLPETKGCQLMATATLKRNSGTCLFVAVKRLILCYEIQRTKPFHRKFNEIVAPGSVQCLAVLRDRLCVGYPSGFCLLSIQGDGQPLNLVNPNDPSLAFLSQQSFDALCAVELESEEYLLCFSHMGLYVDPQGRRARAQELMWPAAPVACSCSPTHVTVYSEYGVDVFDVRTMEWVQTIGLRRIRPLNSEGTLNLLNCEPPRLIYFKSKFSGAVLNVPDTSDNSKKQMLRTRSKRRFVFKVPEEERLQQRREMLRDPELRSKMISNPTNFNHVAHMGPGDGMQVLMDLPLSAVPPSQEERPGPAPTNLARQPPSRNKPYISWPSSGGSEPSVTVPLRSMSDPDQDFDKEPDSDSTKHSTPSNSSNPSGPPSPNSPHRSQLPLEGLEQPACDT

C=CC(=O)Nc1ccc(C(=O)Nc2[nH]nc3c2CN(C(=O)N[C@H](CN(C)C)c2ccccc2)C3(C)C)cc1
% of engagement [1]: 55.8% | % of engagement [2]: -7.3%

Cc1cc([C@@H](C)Nc2ccccc2C(=O)O)c2nc(N3CCOCC3)cc(=O)n2c1 [AZD-6482]
% of control [3]: 100%

N#Cc1cccc(-c2c[nH]c3ncnc(N4CCOCC4)c23)c1
% of control [4]: 6.4%

CC(C)(O)[C@H](F)CN1Cc2cc(NC(=O)c3cnn4cccnc34)c(N3CCOCC3)cc2C1=O
dTM [5]: 0.4 K

CC[C@@H]1[C@H](F)C(=O)N[C@@H]1COc1nccc2cc(C(N)=O)c(OC)cc12 [ZIMLOVISERTIB]
% of inhibition ([6]; at 0.01 µM): -20.4% | % of inhibition ([6]; at 0.04 µM): 12.3% | % of inhibition ([6]; at 0.2 µM): 15.1% | % of inhibition ([6]; at 1 µM): 7.7% | % of inhibition ([6]; at 5 µM): -1.3%

CCC(=O)N1CCN(c2ccc(-n3c(=O)ccc4cnc5ccc(-c6cnc7ccccc7c6)cc5c43)cc2C(F)(F)F)CC1
% of control [7]: 3.4%
